# Data from patent US6287840A (Axys Pharmaceuticals, Inc., priority 1999, dated 2001).
# pKi: −log10 of the molar value. Read-outs that look alike come from different tables or passages of the source.
# How the values were obtained:
# Cloned cathepsin S = biological target: T1, Cloned cathepsin S (Homo sapiens, UniProt P25774); experiment: Inhibition of cathepsin S, Z-Val-Val-Arg-AMC fluorescence progress curves; type: biochemical; settings: for pKi: corrected for substrate; for k/KI (kirr/KI): values without asterisk, 25° C., pH 6.5
# T1 construct: made in house
# T1 sequence (P25774 115-331): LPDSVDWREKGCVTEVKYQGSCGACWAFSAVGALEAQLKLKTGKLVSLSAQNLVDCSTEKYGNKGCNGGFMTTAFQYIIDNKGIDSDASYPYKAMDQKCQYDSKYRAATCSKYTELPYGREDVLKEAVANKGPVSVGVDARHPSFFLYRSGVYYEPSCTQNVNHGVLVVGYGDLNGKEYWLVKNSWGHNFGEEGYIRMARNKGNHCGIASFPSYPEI
# Summary of the method: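 Progress curves at 25 °C in 100 mM phosphate pH 6.5, 2.5 mM DTT, 2.5 mM EDTA, 0.01% Triton, enzyme <1 nM, 10 μM substrate, inhibitors 30-0.001 μM; AMC fluorescence ex 380/em 460 nm. kobs from nonlinear fits gave kobs/[I]; selected compounds yielded kirr, KI (substrate-corrected), kirr/KI.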
# [1] = test system: Trypanosoma cruzi amastigote infected macrophages; experiment: In vitro antiprotozoal activity, Trypanosoma cruzi; type: cell-based; design: key to percentage inhibition, T. cruzi: the term "T" indicates the molecule to have displayed cytotoxicity
# Description: (§1) In this table, the in vitro antiprotozoal activities of the indicated compounds were measured as percentage inhibition of Leishmania donovani amastigote infecteda mouse peritoneal macrophages, Trypanosoma cruzi amastigote infected macrophages, and Trypanosoma brucei extracellular bloodstream forms.
# [2] = test system: Trypanosoma brucei extracellular bloodstream forms; experiment: In vitro antiprotozoal activity, Trypanosoma brucei; type: cell-based
# Description: as §1
# Female Lewis rats = experiment: Mycobacterium butyricum induced arthritis in rats, compound in chow, 28 days; type: in vivo, rat
# Description: At day zero, Female Lewis rats (5/group), 5 weeks old, were given intradermal injection into the base of the tail of Mycobacterium butyricum in 0.1 ml of light mineral oil. The animals were provided Teklad (4%) rat chow mixed with (treated groups) or without compound (control group) and water ad libilum. The compounds used were Mu-Phe-HphVSPh, Mu-Leu-HphVSPh, Mu-Tyr-HphVSPh, Mu-Phe-Lys(ε-Z)VSPh, Mu-Phe-LysVSPh-HBr. The compounds were given to three groups at 3, 10, and 30 mg/kg/day, respectively. The following parameters were noted: biweekly weights and biweekly joint evaluations by the following scoring system: paw swelling 0=no edema, 1=slight edema of small digital joints, 2=edema of the digital joints and foot pad, 3=gross edema of the entire foot pad below that ankle or elbow, 4=gross edema of the entire foot pad including the ankle and elbow joint Erythema was scored as: 0=normal, 1=pink, 2=red, 3=deep violaceous. The evaluators were blinded as to treatment groups.
# After 28 days the animals were killed and the hind paws and knees were removed and fixed in 4% paraformaldehyde. […] Joint histopathology scores were calculated by the following method: two sections of each joint were read for synovial cell proliferation, cartilage erosion, bone erosion, fibroproliferative pannus, diffuse inflammatory synovitis, and synovial vasculitis: 0=normal, 1=mild, 2=moderate, 3=and severe. […]
# P. carinii = experiment: Growth of P. carinii in vitro; type: cell-based; settings: 10 mM each
# Description: Mu-Leu-HphVSPh and Mu-Phe-LysVSPh.HBr were evaluated for their effects on the growth of P. carinii in vitro, according to the procedure of M. S. Bartlett et al. [Antimicrotubule Benzimidazoles Inhibit In Vitro Growth of P. carinii, M. S. Bartlett, T. D. Edlind, M. M. Durkin, M. M. Shaw, S. F. Queener, and J. W. Smith, (1992) Antimicrobial Agents and Chemotherapy, 36, 779-782; Antimicrobial susceptibility of P. carinii in culture, M. S. Bartlett, R. Eichholtz, and J. W. Smith (1985) Diagn. Microbiol. Infect. Dis.; 3, 381-387. Mu-Leu-HphVSPh and Mu-Phe-LysVSPh.HBr (10 mM each) inhibited the growth of P. carinii 64% and 50% respectively.
# T. cruzi = T. cruzi infected irradiated J774 cells; type: cell-based; design: dose or concentration left out as unconfirmed; settings: thereafter without inhibitor; compounds listed in decreasing order of effectiveness
# Description: Irradiated J774 cells were infected with T. cruzi and simultaneously treated with […] of peptidyl vinyl derivatives for 5 days; thereafter without inhibitor. The following compounds were effective in decreasing order: Mu-Phe-ArgVSPh, Boc-Tyr(I2)-HphVSPh, Mu-Phe-VaIVSPh, Boc-Tic-HphVSPh, Mu-Phe-Ser(OBzl)VSPh, Mu-Leu-HphVSPh, Mu-Tyr(I2)-HphVSPh, Mu-Phe-LysVSPh, Mu-Tic-HphVSPh.
# calpain = experiment: Inhibition (inactivation) of calpain, Suc-Leu-Tyr-AMC; type: biochemical; settings: values marked * (or %); pH 7.5, 5 mM CaCl2, 25° C.
# Description: The inhibitors were tested against calpain at 1 or 2% as for the other enzymes. The reaction conditions were 50 mM Tris, pH 7.5, 5 mM CaCl2, 2.5 mM DTT, assayed at 25° C. The substrate was 100 μM Suc-Leu-Tyr-AMC.
smiles,measurement,setting,value
"CC(C)C[C@H](NC(=O)N1CCOCC1)C(=O)N[C@H](/C=C/S(=O)(=O)c1ccccc1)CCc1ccccc1 [Mu-Leu-HphVSPh, (S)-(E)-3-(4-morpholinecarbonylleucyl)amino-5-phenyl-1-phenylsulfonyl-1-pentene]",kirr,Cloned cathepsin S,0.16 s⁻¹
same,pKi,Cloned cathepsin S,8.23
same,k/KI (kirr/KI),Cloned cathepsin S,"26,300,000 M^-1 sec^-1"
same,"percentage inhibition, T. cruzi",[1]; 3 uM,0%
same,"percentage inhibition, T. cruzi",[1]; 10 uM,0%
same,"percentage inhibition, T. cruzi",[1]; 30 uM,11.4%
same,"percentage inhibition, T. cruzi",[1]; 90 uM,T
same,"percentage inhibition, T. brucei",[2]; 3 uM,11.2%
same,"percentage inhibition, T. brucei",[2]; 10 uM,82.2%
same,"percentage inhibition, T. brucei",[2]; 30 uM,84.7%
same,"percentage inhibition, T. brucei",[2]; 90 uM,100%
same,bone and cartilage destruction,Female Lewis rats; high dose,reduction in bone and cartilage destruction
same,inhibition of the growth of P. carinii,P. carinii,64%
same,effectiveness against T. cruzi in J774 cells,T. cruzi,effective
"O=C(N[C@H](/C=C/S(=O)(=O)c1ccccc1)CCc1ccccc1)C(Cc1ccccc1)NC(=O)N1CCOCC1 (stereo partly drawn) [Mu-Phe-HphVSPh, (S)-(E)-3-(4-morpholinecarbonyl-phenylalanyl)amino-5-phenyl-1-phenylsulfonyl-1-pentene]",kirr,Cloned cathepsin S,0.085 s⁻¹
same,pKi,Cloned cathepsin S,7.96
same,pKi,Cloned cathepsin S; listed as Mu-Phe-Hph-VSPh,7.64
same,kirr,Cloned cathepsin S; listed as Mu-Phe-Hph-VSPh,0.15 s⁻¹
same,k/KI (kirr/KI),Cloned cathepsin S,"7,700,000 M^-1 sec^-1"
same,k/KI (kirr/KI),Cloned cathepsin S; listed as Mu-Phe-Hph-VSPh,"6,500,000 M^-1 sec^-1"
same,kobs /[I]*,calpain,< 50 M⁻¹ s⁻¹
same,"percentage inhibition, T. cruzi",[1]; 3 uM,10%
same,"percentage inhibition, T. cruzi",[1]; 10 uM,10%
same,"percentage inhibition, T. cruzi",[1]; 30 uM,50.1%
same,"percentage inhibition, T. cruzi",[1]; 90 uM,T
same,"ED50, T. brucei",[2],2190 nM
same,"percentage inhibition, T. brucei",[2]; 1 uM,10.2%
same,"percentage inhibition, T. brucei",[2]; 3 uM,90.5%
same,"percentage inhibition, T. brucei",[2]; 10 uM,82.7%
same,"percentage inhibition, T. brucei",[2]; 30 uM,100%
same,"percentage inhibition, T. brucei",[2]; 90 uM,100%
same,"effect on all scores (paw swelling, erythema, joint histopathology)","Female Lewis rats; 3, 10, and 30 mg/kg/day in chow, 28 days",dose dependent beneficial effect on all scores
